Reference: patent US20110104159A1, “COMPOSITIONS AND METHODS FOR TREATING, CONTROLLING, REDUCING, AMELIORATING, OR PREVENTING ALLERGY” (priority 2006, published 2011)
Where “and” joins values, the source holds several entries; their conditions need not be identical. Equal entries are not always repeated.

Key:
[1] = tested on: rabbit paracentesis model; experiment: Clinical evaluation by slit lamp (clinical score), rabbit paracentesis model; assay type: in vivo; parameters: key to Clinical Score −180 min / Clinical Score −5 min / Clinical Score +115 min: 0: normal; 1: discrete dilatation of iris and conjunctival vessels; 2: moderate dilatation of iris and conjunctival vessels; 3: intense iridal hyperemia with flare in the anterior chamber; 4: intense iridal hyperemia with flare in the anterior chamber and presence of fibrinous exudates; conditions: for Clinical Score −5 min: 5 min before first paracentesis; for Clinical Score −5 min / Clinical Score +115 min / Clinical Score −180 min: individual eye, scale 0-4; for Clinical Score +115 min: 5 min before second paracentesis; for Clinical Score −180 min: basal
MPO = experiment: Myeloperoxidase (MPO) activity in iris-ciliary body; assay type: in vivo, Rabbit; conditions: for MPO activity in iris-ciliary body, statistical comparison with CTR: p<0.001; for Mean MPO Unit/g (MPO activity in iris-ciliary body samples): group mean, after the second paracentesis; for MPO Unit/g (raw data of MPO activity in iris-ciliary body samples): individual eyes (DX/SX) of rabbits, samples collected after the second paracentesis, listed as BOL
Description: 2.3.2.1 Phosphate Buffer (50 mM; pH=6)
3.9 g of NaH2PO4 2H2O were dissolved in a volumetric flask to 500 ml with water. The pH was adjusted to pH=6 with 3N NaOH.
0.5 g of hexa-decyl-trimethyl-ammonium bromide was dissolved in 100 ml phosphate buffer.
The solution was prepared freshly. Ten microliters of H2O2 (30 wt. %) were diluted to 1 ml with water (solution A). 7.5 mg o-dianisidine 2HCl were dissolved in 45 ml of phosphate buffer and 75 μl of solution A were added.
Each rabbit was placed in a restraint device and tagged with the alphanumeric code. The formulations were instilled (50 μl) into the conjunctival sac of both eyes 180, 120, 90 and 30 min before the first paracentesis; then 15, 30, 90 min after the first paracentesis. To perform the first paracentesis the animals were anaesthetized by intravenous injection of 5 mg/kg Zoletil® (Virbac; 2.5 mg/kg tiletamine HCl and 2.5 mg/kg zolazepam HCl) and one drop of local anesthetic (Novesina®, Novartis) was administered to the eye. Anterior chamber paracentesis was performed with a 26 G needle attached to a tuberculin syringe; the needle was introduced into the anterior chamber through the cornea, taking care not to damage the tissues. Two hours after the first paracentesis, the animals were sacrificed with 0.4 ml Tanax® (Intervet International B.V.) and the second paracentesis was performed. About 100 μl of aqueous humor were removed at the second paracentesis. Aqueous humor was immediately split in four aliquots and stored at −80° C. until analysis. Then both eyes were enucleated and the iris-ciliary body was carefully excised, placed in polypropylene tubes, and stored at −80° C. until analysis.
The activity of MPO was measured as previously described by Williams et al. The iris-ciliary bodies were carefully dried, weighed and immersed in 1 ml of hexa-decyl-trimethyl-ammonium bromide solution. Then, the samples were sonicated for 10 sec on ice by a ultrasound homogenizer (HD 2070, Bandelin electronic), freeze-thawed three times, sonicated for 10 sec and centrifuged at 14,000 g for 10 min to remove cellular debris. An aliquot of the supernatant (40-200 μl) was diluted to 3 ml with the o-dianisidine 2HCl/H2O2 solution. The change in absorbance at 460 nm was continuously monitored for 5 min by a spectrophotometer (UV/Vis Spectrometer Lambda EZ 201; Perkin Elmer). The slope of the line (Δ/min) was determined for each sample and used to calculate the number of units of MPO in the tissue as follows:
where ε=11.3 mM^−1. Values were expressed as units of MPO/g of tissue.

eosinophil peroxidase = experiment: Eosinophil peroxidase assay in guinea pig conjunctiva; assay type: in vivo; conditions: 0.4% eye drops; 24 h after antigen challenge
Description: Male Dunkin-Hartley guinea pigs were actively immunized by i.p. injection of 200 μg OVA in 2 ml saline with 40 mg aluminum hydroxide (positive control) or saline alone (negative control), as previously reported. […] Negative controls received saline alone.
Conjunctival clinical symptoms were rated blind on both eyes using the following scale: 0, no symptoms; 1, slight conjunctival redness with or without tears; 2, mild conjunctival redness with tears and mild chemosis; 3, mild conjunctival redness with tears and moderate chemosis; 4, severe conjunctival redness with tears and partial lid eversion; 5, severe conjunctival redness with tears and lids more than half closed. […] The number of eosinophils in each field was counted under light microscopy (×500 magnification). In the other sample eosinophil peroxidase activity was measured.
Eosinophil peroxidase was assayed as previously reported in conjunctival samples obtained as above described. […] Absorbance was measured using a spectrophotometer (JASCO V-530, Jasco, UK) at 490 nm. […] Eosinophil peroxidase activity was measured according to the method of Strath et al., which is based on the oxidation of o-phenylenediamine by eosinophil peroxidase in the presence of hydrogen peroxide. One unit corresponds to 1 mmol of hydrogen peroxide decomposed for […], and the results were expressed as eosinophil peroxidase levels (mU of enzyme/mg wet tissue).

## Cc1ccc2c(NC[C@](O)(CC(C)(C)c3cc(F)cc4c3OCC4)C(F)(F)F)cccc2n1 [BOL-303242-X, (R)-1,1,1-Trifluoro-4-(5-fluoro-2,3-dihydrobenzofuran-7-yl)-4-methyl-2-{[(2-methyl-5-quinolyl)amino]methyl}pentan-2-ol]
[1]; 0.1% topical
  Clinical Score −5 min: 0
  Clinical Score −180 min: 0
[1]; 0.1% topical, listed as BOL
  Clinical Score +115 min: 2 (6×) and 3 (2×)
[1]; 0.1% topical, +115 min, 8 eyes
  Percentage of eyes with clinical score 2: 75%
  Percentage of eyes with clinical score 3: 25%
[1]; 0.1% topical, −5 min, 8 eyes
  Percentage of eyes with clinical score 0: 100%
[1]; 0.1% topical, −180 min, 8 eyes
  Percentage of eyes with clinical score 0: 100%
[1]; 0.5% topical
  Clinical Score −5 min: 0
  Clinical Score −180 min: 0
[1]; 0.5% topical, listed as BOL
  Clinical Score +115 min: 2 (5×) and 1 (3×)
[1]; 0.5% topical, +115 min, 8 eyes
  Percentage of eyes with clinical score 1: 37.5%
  Percentage of eyes with clinical score 2: 62.5%
[1]; 0.5% topical, −5 min, 8 eyes
  Percentage of eyes with clinical score 0: 100%
[1]; 0.5% topical, −180 min, 8 eyes
  Percentage of eyes with clinical score 0: 100%
[1]; 1% topical
  Clinical Score −5 min: 0
  Clinical Score +115 min: 2
  Clinical Score −180 min: 0
[1]; 1% topical, +115 min, 8 eyes
  Percentage of eyes with clinical score 2: 100%
[1]; 1% topical, −5 min, 8 eyes
  Percentage of eyes with clinical score 0: 100%
[1]; 1% topical, −180 min, 8 eyes
  Percentage of eyes with clinical score 0: 100%
MPO; 0.1% topical
  MPO activity in iris-ciliary body, statistical comparison with CTR: statistical significance
MPO; 0.1% treatment
  Mean MPO Unit/g (MPO activity in iris-ciliary body samples): 0.971 Unit/g
  MPO Unit/g (raw data of MPO activity in iris-ciliary body samples): 1.04 Unit/g and 1.00 Unit/g and 1.14 Unit/g and 1.06 Unit/g and 1.22 Unit/g and 0.61 Unit/g and 1.05 Unit/g and 0.65 Unit/g
MPO; 0.5% topical
  MPO activity in iris-ciliary body, statistical comparison with CTR: statistical significance
MPO; 0.5% treatment
  Mean MPO Unit/g (MPO activity in iris-ciliary body samples): 0.775 Unit/g
  MPO Unit/g (raw data of MPO activity in iris-ciliary body samples): 0.85 Unit/g and 0.93 Unit/g and 0.79 Unit/g and 1.03 Unit/g and 0.75 Unit/g and 0.74 Unit/g and 0.54 Unit/g and 0.58 Unit/g
MPO; 1% topical
  MPO activity in iris-ciliary body, statistical comparison with CTR: statistical significance
MPO; 1% treatment
  Mean MPO Unit/g (MPO activity in iris-ciliary body samples): 0.542 Unit/g
  MPO Unit/g (raw data of MPO activity in iris-ciliary body samples): 0.66 Unit/g and 0.68 Unit/g and 0.49 Unit/g and 0.40 Unit/g and 0.34 Unit/g and 1.02 Unit/g and 0.31 Unit/g and 0.43 Unit/g
Eosinophil peroxidase
  Conjunctival eosinophil peroxidase activity: noteworthy reduction
